According to patent US8906917B2, “Pyrimidine cyclohexyl glucocorticoid receptor modulators” (Corcept Therapeutics, Inc., priority 2011, dated 2014):

Assays:
[1] = target: T1, Human Recombinant Glucocorticoid Receptor (Homo sapiens, UniProt P04150); assay: Glucocorticoid receptor binding displacement assay with 3H-dexamethasone; details: displacement of 2.5 nM 3H-dexamethasone, 2.5 hrs at 4° C.; Ki from IC50 by Cheng-Prusoff; read-out: GR Binding Ki
T1 construct: This GR was a full-length steroid hormone receptor; host or cells: recombinant baculovirus-infected insect cells
T1 sequence (P04150 1-777): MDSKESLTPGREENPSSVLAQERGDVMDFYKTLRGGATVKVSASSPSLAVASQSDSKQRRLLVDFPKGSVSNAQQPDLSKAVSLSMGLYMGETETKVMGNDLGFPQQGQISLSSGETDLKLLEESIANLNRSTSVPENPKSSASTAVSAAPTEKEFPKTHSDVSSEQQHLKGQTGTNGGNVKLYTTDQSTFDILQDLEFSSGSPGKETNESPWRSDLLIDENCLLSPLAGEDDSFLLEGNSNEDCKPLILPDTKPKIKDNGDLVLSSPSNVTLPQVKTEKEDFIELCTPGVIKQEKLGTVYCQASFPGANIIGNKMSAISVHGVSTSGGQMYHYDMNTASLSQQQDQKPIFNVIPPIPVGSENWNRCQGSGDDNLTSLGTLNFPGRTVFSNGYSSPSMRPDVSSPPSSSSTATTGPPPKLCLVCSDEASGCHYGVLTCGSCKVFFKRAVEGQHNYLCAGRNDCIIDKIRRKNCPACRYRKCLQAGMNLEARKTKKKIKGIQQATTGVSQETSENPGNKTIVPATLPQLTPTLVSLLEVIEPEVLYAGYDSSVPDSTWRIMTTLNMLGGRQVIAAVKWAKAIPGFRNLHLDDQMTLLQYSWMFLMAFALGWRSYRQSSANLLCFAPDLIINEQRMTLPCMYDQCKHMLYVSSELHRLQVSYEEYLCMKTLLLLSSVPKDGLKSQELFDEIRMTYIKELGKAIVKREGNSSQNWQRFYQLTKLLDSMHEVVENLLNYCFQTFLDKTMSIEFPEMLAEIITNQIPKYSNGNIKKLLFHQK
Experimental: Binding protocol: Compounds were tested in a binding displacement assay using human recombinant glucocorticoid receptor with ^3H-dexamethasone as the ligand. The source of the receptor was recombinant baculovirus-infected insect cells. This GR was a full-length steroid hormone receptor likely to be associated with heat-shock and other endogenous proteins.
For the IC50 determinations, test compounds were tested at 6 concentrations in duplicate. Test compounds were diluted from 10 mM stock in 100% DMSO. The tested solutions were prepared at 2× final assay concentration in 2% DMSO/assay buffer.
All reagents and the assay plate were kept on ice during the addition of reagents. The reagents were added to wells of a v-bottomed polypropylene plate in the following order: 25 μl of 10 nM 3H-dexamethasone solution, 50 μl of TB/NSB/compound solution and 25 μl of 2 nM GR solution. After the additions, the incubation mixture was mixed and incubated for 2.5 hrs at 4° C.
Alter 2.5 hrs incubation, unbound counts were removed with dextran coated charcoal (DCC) as follows: 15 μl of DCC solution (10% DCC in assay buffer) was added to all wells and mixed (total volume 115 μl). The plate was centrifuged at 4000 rpm for 10 minutes at 4° C. 75 μl of the supernatants was carefully pipetted into an optiplate. 150 μl of scintillation cocktail were added (Microscint-40, Perkin Elmer). The plate was vigorously shaken for approx. 10 minutes and counted on Topcount.
The IC50 values were converted to Ki (the inhibition constant) using the Cheng-Prusoff equation.
Reagents: Assay buffer: 10 mM potassium phosphate buffer pH 7.6 containing 5 mM DTT, 10 mM sodium molybdate, 100 μM EDTA and 0.1% BSA.

[2] = target: T2, glucocorticoid receptors (endogenous) in SW1353/MMTV-5 cells (Homo sapiens, UniProt P04150); assay: GR functional assay using SW1353/MMTV-5 cells (MMTV-GRE luciferase reporter); assay type: cell-based
T2 construct: contains endogenous glucocorticoid receptors; endogenous in cells; host or cells: SW1353/MMTV-5 (human chondrosarcoma, stably transfected with pMAMneo-Luc reporter)
T2 sequence (P04150 1-777): T1 sequence (P04150 1-777)
Experimental: SW1353/MMTV-5 is an adherent human chondrosarcoma cell line that contains endogenous glucocorticoid receptors. It was transacted with a plasmid (pMAMneo-Luc) encoding firefly luciferase located behind a glucocorticoid-responsive element (GRE) derived from a viral promoter (long terminal repeat of mouse mammary tumor virus). A stable cell line SW1353/MMTV-5 was selected with geneticin, which was required to maintain this plasmid.
SW1353/MMTV-5 cells were distributed in 96-well plates and incubated in medium (without geneticin) for 24 hrs.

SMILES	Ki [1]	Ki [2]
Cc1csc(Cc2c(=O)[nH]c(=O)[nH]c2[C@H]2CC[C@H](c3ccccc3)CC2)n1 [Compound 3t]	> 10 nM	> 100 nM
O=c1[nH]c(C2=CCC(c3ccccc3)CC2)c(Cc2ccccc2)c(=O)[nH]1 (stereo not shown) [Compound 2a, 5-Benzyl-6-(4-phenylcyclohex-1-enyl)-1H-pyrimidine-2,4-dione]	> 10 nM	> 100 nM
COc1ccccc1Cc1c(=O)[nH]c(=O)[nH]c1[C@H]1CC[C@H](c2ccccc2)CC1 [Compound 3u]	< 5 nM	50 to 100 nM
Cc1cccc(Cc2c(=O)n(CCN(C)C)c(=O)[nH]c2[C@H]2CC[C@H](c3ccccc3)CC2)c1 [Compound 13b]	> 10 nM	> 100 nM
Cn1c(=O)[nH]c([C@H]2CC[C@H](c3ccccc3)CC2)c(Cc2cccc(C(F)(F)F)c2)c1=O [Compound 13d, (E)-3-Methyl-6-(4-phenyl-cyclohexyl)-5-(3-trifluoromethyl-benzyl)-1H-pyrimidine-2,4-dione]	5 to 10 nM	> 100 nM
O=c1[nH]c(=O)c(Cc2cc(C(F)(F)F)ccn2)c([C@H]2CC[C@H](c3ccccc3)CC2)[nH]1 [Compound 3r]	> 10 nM	50 to 100 nM
O=c1[nH]c(=O)c(Cc2ccccn2)c([C@H]2CC[C@H](c3ccccc3)CC2)[nH]1 [Compound 3p]	> 10 nM	> 100 nM
Nc1cccc(Cc2c(=O)[nH]c(=O)[nH]c2[C@H]2CC[C@H](c3ccccc3)CC2)n1 [Compound 3cc]	> 10 nM	> 100 nM
Cc1ccnc(Cc2c(=O)[nH]c(=O)[nH]c2[C@H]2CC[C@H](c3ccccc3)CC2)c1 [Compound 3q]	> 10 nM	< 50 nM
COCCn1c(=O)[nH]c([C@H]2CC[C@H](c3ccccc3)CC2)c(Cc2cccc(C(F)(F)F)c2)c1=O [Compound 13g, (E)-3-(2-Methoxy-ethyl)-6-(4-phenyl-cyclohexyl)-5-(3-trifluoromethyl-benzyl)-1H-pyrimidine-2,4-dione]	> 10 nM	> 100 nM
Cc1cccc(Cc2c(=O)[nH]c(=O)[nH]c2[C@H]2CC[C@H](c3ccccc3)CC2)n1 [Compound 3j]	> 10 nM	50 to 100 nM
Cn1c(=O)[nH]c([C@H]2CC[C@H](c3ccccc3)CC2)c(Cc2ccccc2)c1=O [Compound 13h]	> 10 nM	50 to 100 nM
O=c1[nH]c(=O)c(Cc2ccc(Cl)cc2Cl)c([C@H]2CC[C@H](c3ccccc3)CC2)[nH]1 [Compound 3f]	5 to 10 nM	< 50 nM
CN(C)c1cccc(Cc2c(=O)[nH]c(=O)[nH]c2[C@H]2CC[C@H](c3ccccc3)CC2)n1 [Compound 3v]	5 to 10 nM	< 50 nM
O=c1[nH]c(=O)c(Cc2ccccc2Cl)c([C@H]2CC[C@H](c3ccccc3)CC2)[nH]1 [Compound 3c]	< 5 nM	< 50 nM
O=c1[nH]c(=O)c(Cc2nccs2)c([C@H]2CC[C@H](c3ccccc3)CC2)[nH]1 [Compound 3o]	> 10 nM	> 100 nM
Cc1cccc(Cc2c(=O)n(C)c(=O)[nH]c2[C@H]2CC[C@H](c3ccccc3)CC2)c1 [Compound 13a, (E)-3-Methyl-5-(3-methylbenzyl)-6-(4-phenylcyclohexyl)-1H-pyrimidine-2,4-dione]	5 to 10 nM	< 50 nM
O=c1[nH]c(=O)c(Cc2cccc(C(F)(F)F)c2)c([C@H]2CC[C@H](c3ccccc3)CC2)[nH]1 [Compound 3b, (E)-6-(4-Phenylcyclohexyl)-5-(3-trifluoromethylbenzyl)-1H-pyrimidine-2,4-dione]	5 to 10 nM	< 50 nM
Cc1ccccc1Cc1c(C2=CCC(c3ccccc3)CC2)[nH]c(=O)[nH]c1=O (stereo not shown) [Compound 2d]	> 10 nM	> 100 nM

SMILES	Ki [1]	Ki [2]
O=c1[nH]c(=O)c(Cc2ccccc2)c([C@H]2CC[C@@H](c3ccccc3)CC2)[nH]1 [Compound 3bb]	> 10 nM	> 100 nM
Cc1cccc(Cc2c(=O)[nH]c(=S)[nH]c2[C@H]2CC[C@H](c3ccccc3)CC2)c1 [Compound 12g, (E)-6-(4-Phenylcyclohexyl)-2-thioxo-5-(3-methylbenzyl)-2,3-dihydro-1H-pyrimidin-4-one]	> 10 nM	> 100 nM
O=c1[nH]c(=O)c(Cc2ncccc2Cl)c([C@H]2CC[C@H](c3ccccc3)CC2)[nH]1 [Compound 3m]	> 10 nM	> 100 nM
O=c1[nH]c(=O)c(Cc2ccc(F)cc2F)c([C@H]2CC[C@H](c3ccccc3)CC2)[nH]1 [Compound 3y]	5 to 10 nM	50 to 100 nM
O=c1[nH]c(=O)c(Cc2cccc(Cl)c2Cl)c([C@H]2CC[C@H](c3ccccc3)CC2)[nH]1 [Compound 3d]	< 5 nM	< 50 nM
O=c1[nH]c(=O)c(Cc2c(Cl)cccc2Cl)c([C@H]2CC[C@H](c3ccccc3)CC2)[nH]1 [Compound 3e]	5 to 10 nM	50 to 100 nM
O=c1[nH]c(=O)c(Cc2cccc(F)c2F)c([C@H]2CC[C@H](c3ccccc3)CC2)[nH]1 [Compound 3z]	< 5 nM	< 50 nM
Cc1cccc(Cc2c(C3=CCC(c4ccccc4)CC3)[nH]c(=O)[nH]c2=O)c1 (stereo not shown) [Compound 2b]	5 to 10 nM	50 to 100 nM
O=c1[nH]c(=O)c(Cc2ccc(F)c(Cl)c2)c([C@H]2CC[C@H](c3ccccc3)CC2)[nH]1 [Compound 3aa]	> 10 nM	< 50 nM
O=c1[nH]c([C@H]2CC[C@H](c3ccccc3)CC2)c(Cc2cccc(C(F)(F)F)c2)c(=O)n1CCO [Compound 13f, (E)-3-(2-Hydroxy-ethyl)-6-(4-phenyl-cyclohexyl)-5-(3-trifluoromethyl-benzyl)-1H-pyrimidine-2,4-dione]	> 10 nM	> 100 nM
O=c1[nH]c(=O)c(Cc2cccc(C(F)(F)F)n2)c([C@H]2CC[C@H](c3ccccc3)CC2)[nH]1 [Compound 3l]	5 to 10 nM	< 50 nM
Cc1cc(Cc2c(=O)[nH]c(=O)[nH]c2[C@H]2CC[C@H](c3ccccc3)CC2)ccn1 [Compound 3n]	> 10 nM	> 100 nM
O=c1[nH]c(=O)c(Cc2ccc(F)c(F)c2)c([C@H]2CC[C@H](c3ccccc3)CC2)[nH]1 [Compound 3w]	> 10 nM	50 to 100 nM
O=c1[nH]c(=O)c(Cc2ccccc2)c([C@H]2CC[C@H](c3ccccc3)CC2)[nH]1 [Compound 3a, (E)-5-Benzyl-6-(4-phenylcyclohexyl)-1H-pyrimidine-2,4-dione]	< 5 nM	< 50 nM
CCc1ccccc1Cc1c(=O)[nH]c(=O)[nH]c1[C@H]1CC[C@H](c2ccccc2)CC1 [Compound 3s]	5 to 10 nM	50 to 100 nM
Cc1cccc(Cc2c(=O)[nH]c(=O)[nH]c2[C@H]2CC[C@H](c3ccccc3)CC2)c1 [Compound 3h, (E)-5-(3-Methylbenzyl)-6-(4-phenylcyclohexyl)-1H-pyrimidine-2,4-dione]	< 5 nM	< 50 nM
O=c1[nH]c(=O)c(Cc2cc(Cl)ccc2Cl)c([C@H]2CC[C@H](c3ccccc3)CC2)[nH]1 [Compound 3g]	< 5 nM	< 50 nM
O=c1[nH]c(=O)c(Cc2ncccn2)c([C@H]2CC[C@H](c3ccccc3)CC2)[nH]1 [Compound 3k]	> 10 nM	> 100 nM
O=c1[nH]c(C2=CCC(c3ccccc3)CC2)c(Cc2ccccc2Cl)c(=O)[nH]1 (stereo not shown) [Compound 2c]	5 to 10 nM	> 100 nM
